# Calls of active or inactive are those of the source. The calls are words filed in the database; no cut-off is given here.
# Experiments:
# [1] = target: Protein-tyrosine kinase 2-beta (Homo sapiens) (UniProt Q14289); assay: Induction of PYK2 degradation in human MDA-MB-231 cells at 10 nM treated for 16 hrs followed by compound washout and measured after 48 hrs by Western blot analysis; type: cell-based
# Calu-1 [2] = assay: Down regulation of C-myc protein expression in human Calu-1 cells at 1 to 500 nM after 48 hrs by Western blot analysis; type: functional, cell-based; conditions: dose 1-500 nM
# [3] = Oral bioavailability in […] at 10 mg/kg measured upto 24 hrs; type: ADME, organism-based; conditions: in vivo
# Calu-1 [4] = assay: Down regulation of cyclin D1 protein expression in human Calu-1 cells at 1 to 500 nM after 48 hrs by Western blot analysis; type: functional, cell-based; conditions: dose 1-500 nM
# [5] = target: T1, ALK tyrosine kinase receptor (Homo sapiens, UniProt Q9UM73); assay: Induction of ALK degradation in human SR cells at 100 nM incubated with compound for 24 hrs followed by compound washout and measured upto 72 hrs by Western blot analysis; type: cell-based
# Target sequence in this assay (Q9UM73 19-1620 limits assumed): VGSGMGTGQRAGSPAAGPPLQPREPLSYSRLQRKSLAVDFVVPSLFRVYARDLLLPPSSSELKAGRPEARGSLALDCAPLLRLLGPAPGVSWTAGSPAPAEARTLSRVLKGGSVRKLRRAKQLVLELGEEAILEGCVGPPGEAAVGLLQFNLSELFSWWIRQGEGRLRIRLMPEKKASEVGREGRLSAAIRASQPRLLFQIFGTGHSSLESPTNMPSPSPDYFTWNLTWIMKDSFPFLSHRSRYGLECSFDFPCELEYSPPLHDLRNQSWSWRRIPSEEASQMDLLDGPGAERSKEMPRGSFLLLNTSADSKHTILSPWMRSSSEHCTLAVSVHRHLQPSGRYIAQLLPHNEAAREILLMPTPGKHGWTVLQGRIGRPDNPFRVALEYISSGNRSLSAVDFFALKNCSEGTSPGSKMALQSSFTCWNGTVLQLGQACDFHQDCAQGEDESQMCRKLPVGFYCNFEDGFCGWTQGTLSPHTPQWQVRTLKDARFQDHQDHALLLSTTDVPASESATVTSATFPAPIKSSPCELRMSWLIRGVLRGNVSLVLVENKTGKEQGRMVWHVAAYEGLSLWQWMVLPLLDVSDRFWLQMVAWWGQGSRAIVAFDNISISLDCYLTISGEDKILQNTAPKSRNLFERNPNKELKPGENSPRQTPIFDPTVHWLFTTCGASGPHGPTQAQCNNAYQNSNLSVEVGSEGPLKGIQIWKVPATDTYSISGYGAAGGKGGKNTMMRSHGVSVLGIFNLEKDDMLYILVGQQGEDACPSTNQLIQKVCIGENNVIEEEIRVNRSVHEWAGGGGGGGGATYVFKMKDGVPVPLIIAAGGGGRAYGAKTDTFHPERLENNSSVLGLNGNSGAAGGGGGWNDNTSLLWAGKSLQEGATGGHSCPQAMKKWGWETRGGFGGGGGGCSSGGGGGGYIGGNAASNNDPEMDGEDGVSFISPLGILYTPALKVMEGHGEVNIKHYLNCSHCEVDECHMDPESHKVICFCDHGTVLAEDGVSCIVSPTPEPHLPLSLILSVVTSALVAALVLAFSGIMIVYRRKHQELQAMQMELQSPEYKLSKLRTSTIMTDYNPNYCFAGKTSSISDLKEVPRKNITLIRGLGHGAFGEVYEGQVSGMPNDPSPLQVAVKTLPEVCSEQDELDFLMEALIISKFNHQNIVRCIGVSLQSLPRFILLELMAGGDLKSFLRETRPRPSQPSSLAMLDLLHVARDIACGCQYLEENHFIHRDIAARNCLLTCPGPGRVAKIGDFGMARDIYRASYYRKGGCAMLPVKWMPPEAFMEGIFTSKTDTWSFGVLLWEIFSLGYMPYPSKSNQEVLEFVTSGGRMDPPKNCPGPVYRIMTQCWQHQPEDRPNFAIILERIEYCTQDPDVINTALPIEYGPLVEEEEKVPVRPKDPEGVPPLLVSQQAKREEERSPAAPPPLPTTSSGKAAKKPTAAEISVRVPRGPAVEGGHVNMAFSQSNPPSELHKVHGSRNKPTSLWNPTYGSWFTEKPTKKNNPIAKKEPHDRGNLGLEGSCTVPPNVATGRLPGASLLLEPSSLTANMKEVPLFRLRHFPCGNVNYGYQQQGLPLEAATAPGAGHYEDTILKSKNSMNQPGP
# [6] = test system: ALK tyrosine kinase receptor (Homo sapiens), Q9UM73 [G1202R]; assay: Induction of […] G1202R mutant degradation in human […] at 100 nM by Western blot analysis; type: cell-based
# MDA-MB-231 [7] = assay: Down regulation of cyclin D1 protein expression in human MDA-MB-231 cells at 1 to 500 nM after 48 hrs by Western blot analysis; type: functional, cell-based; conditions: dose 1-500 nM
# [8] = target: Cyclin-G-associated kinase (Homo sapiens) (UniProt O14976); assay: Binding affinity to wild-type human partial length GAK (G13 to Y338 residues) expressed in bacterial expression system assessed as residual binding level at 100 nM by Kinomescan method relative to control
# Sequence of Cyclin-G-associated kinase (Homo sapiens) (O14976 whole entry, the tested form may be a part): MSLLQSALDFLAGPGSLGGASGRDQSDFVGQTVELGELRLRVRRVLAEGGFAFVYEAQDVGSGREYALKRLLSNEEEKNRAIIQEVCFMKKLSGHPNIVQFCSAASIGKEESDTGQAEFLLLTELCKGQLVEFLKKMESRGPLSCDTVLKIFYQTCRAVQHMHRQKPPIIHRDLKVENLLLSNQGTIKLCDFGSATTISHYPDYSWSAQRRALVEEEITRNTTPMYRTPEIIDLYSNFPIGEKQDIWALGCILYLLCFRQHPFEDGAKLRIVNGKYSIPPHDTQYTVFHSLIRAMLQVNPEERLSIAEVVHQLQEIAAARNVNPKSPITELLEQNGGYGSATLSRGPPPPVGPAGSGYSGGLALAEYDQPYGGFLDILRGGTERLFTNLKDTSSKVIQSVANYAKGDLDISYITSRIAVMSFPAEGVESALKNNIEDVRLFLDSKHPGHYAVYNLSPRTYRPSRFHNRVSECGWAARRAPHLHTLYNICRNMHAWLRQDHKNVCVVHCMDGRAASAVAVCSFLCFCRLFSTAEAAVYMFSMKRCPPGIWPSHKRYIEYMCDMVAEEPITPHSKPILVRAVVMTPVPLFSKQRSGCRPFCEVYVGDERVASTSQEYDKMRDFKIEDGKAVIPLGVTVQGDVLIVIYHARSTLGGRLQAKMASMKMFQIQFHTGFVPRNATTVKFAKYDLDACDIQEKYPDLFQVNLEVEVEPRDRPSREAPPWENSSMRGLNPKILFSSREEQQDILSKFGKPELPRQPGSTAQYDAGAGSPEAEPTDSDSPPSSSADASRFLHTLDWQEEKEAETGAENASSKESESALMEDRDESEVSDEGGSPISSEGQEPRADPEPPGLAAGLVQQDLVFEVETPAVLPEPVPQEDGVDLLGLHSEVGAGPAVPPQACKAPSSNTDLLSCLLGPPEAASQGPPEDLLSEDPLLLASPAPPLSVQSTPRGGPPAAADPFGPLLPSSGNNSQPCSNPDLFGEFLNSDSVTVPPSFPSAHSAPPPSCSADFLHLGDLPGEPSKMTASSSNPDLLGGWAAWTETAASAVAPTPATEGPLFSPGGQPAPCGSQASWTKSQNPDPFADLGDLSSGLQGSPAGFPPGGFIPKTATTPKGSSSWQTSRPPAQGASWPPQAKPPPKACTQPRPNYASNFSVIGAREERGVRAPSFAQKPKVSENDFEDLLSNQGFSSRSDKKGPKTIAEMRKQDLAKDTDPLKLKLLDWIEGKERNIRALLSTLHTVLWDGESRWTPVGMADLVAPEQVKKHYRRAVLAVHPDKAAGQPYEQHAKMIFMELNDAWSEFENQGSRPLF
# A549 [9] = assay: Down regulation of FAK in human A549 cells at 1 to 1000 nM after 16 hrs by Western blot analysis; type: functional, cell-based; conditions: dose 1-1000 nM
# MDA-MB-231 [10] = assay: Down regulation of C-myc protein expression in human MDA-MB-231 cells at 1 to 500 nM after 48 hrs by Western blot analysis; type: functional, cell-based; conditions: dose 1-500 nM
# MDA-MB-231 [11] = assay: Induction of apoptosis in human MDA-MB-231 cells at 100 nM after 72 hrs; type: functional, cell-based
# [12] = target: T1, ALK tyrosine kinase receptor; assay: Inhibition of ALK downstream signalling in human SR cells assessed as reduction in ratio of pALK at 0.1 to 50 nM by Western blot analysis; type: cell-based; conditions: dose 0.1-50 nM
# Target sequence in this assay (Q9UM73 19-1620 limits assumed): as the sequence (Q9UM73 19-1620 limits assumed) above
# [13] = target: Protein-tyrosine kinase 2-beta (Homo sapiens) (UniProt Q14289); assay: Binding affinity to wild-type human full length PYK2 (M1 to E967 residues) expressed in bacterial expression system assessed as residual binding level at 100 nM by Kinomescan method relative to control
# A549 [14] = assay: Down regulation of RSK1 in human A549 cells at 1 to 1000 nM after 16 hrs by Western blot analysis; type: functional, cell-based; conditions: dose 1-1000 nM
# [15] = target: Serine/threonine-protein kinase Chk2 (Homo sapiens) (UniProt O96017); assay: Binding affinity to wild-type human partial length CHEK2 (S253 to E574 residues) expressed in bacterial expression system assessed as residual binding level at 100 nM by Kinomescan method relative to control
# [16] = Metabolic stability in human liver microsomes assessed as half life preincubated for 10 mins followed by NADPH regenerating system addition and measured after 10 mins by LC-MS/MS analysis; type: ADME, Microsome
# MDA-MB-231 [17] = assay: Inhibition of cell migration in human MDA-MB-231 cells assessed as wound confluence ratio at 10 nM after 48 hrs by wound healing assay; type: functional
# [18] = target: ALK tyrosine kinase receptor (Homo sapiens, UniProt Q9UM73, G1202R); assay: Binding affinity to ALK G1202R mutant (unknown origin)
# [19] = target: T1, ALK tyrosine kinase receptor; assay: Binding affinity to ALK (unknown origin)
# [20] = target: Focal adhesion kinase 1 (Homo sapiens) (UniProt Q05397); assay: Binding affinity to wild-type human partial length FAK (D402 to R696 residues) expressed in bacterial expression system assessed as residual binding level at 100 nM by Kinomescan method relative to control
# SR [21] = assay: Antiproliferative activity against human SR cells assessed as inhibition of cell growth at 10 nM preincubated for 5 days followed by compound washout and measured on day 7 and 9 by CCK8 assay; type: functional, cell-based; conditions: time 5.0 day
# [22] = target: Dual specificity protein kinase CLK1 (Homo sapiens) (UniProt P49759); assay: Binding affinity to wild-type human full length CLK1 (M1 to I484 residues) expressed in bacterial expression system assessed as residual binding level at 100 nM by Kinomescan method relative to control
# Calu-1 [23] = assay: Down regulation of RSK1 in human Calu-1 cells at 1 to 1000 nM after 16 hrs by Western blot analysis; type: functional, cell-based; conditions: dose 1-1000 nM
# [24] = target: Serine/threonine-protein kinase PLK4 (Homo sapiens) (UniProt O00444); assay: Binding affinity to wild-type human partial length PLK4 (M1 to S273 residues) expressed in mammalian expression system assessed as residual binding level at 100 nM by Kinomescan method relative to control
# [25] = test system: ALK tyrosine kinase receptor (Homo sapiens), Q9UM73 [L1196M]; assay: Binding affinity to wild-type human partial length ALK L1196M mutant (I1088 to E1409 residues) expressed in mammalian expression system assessed as residual binding level at 100 nM by Kinomescan method relative to control
# Calu-1 [26] = assay: Induction of apoptosis in human Calu-1 cells at 100 nM after 72 hrs; type: functional, cell-based
# [27] = test system: Receptor-type tyrosine-protein kinase FLT3 (Homo sapiens), P36888 [D835Y]; assay: Binding affinity to human partial length FLT3 D835Y mutant (Q580 to Y969 residues) expressed in bacterial expression system assessed as residual binding level at 100 nM by Kinomescan method relative to control
# [28] = Metabolic stability in Sprague-Dawley rat liver microsomes preincubated for 10 mins followed by NADPH regenerating system addition and measured after 10 mins by LC-MS/MS analysis; type: ADME, Microsome; conditions: time 20 min, read-out: Stability
# [29] = target: Activated CDC42 kinase 1 (Homo sapiens) (UniProt Q07912); assay: Binding affinity to wild-type human partial length TNK2 (S159 to D474 residues) expressed in bacterial expression system assessed as residual binding level at 100 nM by Kinomescan method relative to control
# Sequence of Activated CDC42 kinase 1 (Homo sapiens) (Q07912 whole entry, looked up, the tested form may be a part): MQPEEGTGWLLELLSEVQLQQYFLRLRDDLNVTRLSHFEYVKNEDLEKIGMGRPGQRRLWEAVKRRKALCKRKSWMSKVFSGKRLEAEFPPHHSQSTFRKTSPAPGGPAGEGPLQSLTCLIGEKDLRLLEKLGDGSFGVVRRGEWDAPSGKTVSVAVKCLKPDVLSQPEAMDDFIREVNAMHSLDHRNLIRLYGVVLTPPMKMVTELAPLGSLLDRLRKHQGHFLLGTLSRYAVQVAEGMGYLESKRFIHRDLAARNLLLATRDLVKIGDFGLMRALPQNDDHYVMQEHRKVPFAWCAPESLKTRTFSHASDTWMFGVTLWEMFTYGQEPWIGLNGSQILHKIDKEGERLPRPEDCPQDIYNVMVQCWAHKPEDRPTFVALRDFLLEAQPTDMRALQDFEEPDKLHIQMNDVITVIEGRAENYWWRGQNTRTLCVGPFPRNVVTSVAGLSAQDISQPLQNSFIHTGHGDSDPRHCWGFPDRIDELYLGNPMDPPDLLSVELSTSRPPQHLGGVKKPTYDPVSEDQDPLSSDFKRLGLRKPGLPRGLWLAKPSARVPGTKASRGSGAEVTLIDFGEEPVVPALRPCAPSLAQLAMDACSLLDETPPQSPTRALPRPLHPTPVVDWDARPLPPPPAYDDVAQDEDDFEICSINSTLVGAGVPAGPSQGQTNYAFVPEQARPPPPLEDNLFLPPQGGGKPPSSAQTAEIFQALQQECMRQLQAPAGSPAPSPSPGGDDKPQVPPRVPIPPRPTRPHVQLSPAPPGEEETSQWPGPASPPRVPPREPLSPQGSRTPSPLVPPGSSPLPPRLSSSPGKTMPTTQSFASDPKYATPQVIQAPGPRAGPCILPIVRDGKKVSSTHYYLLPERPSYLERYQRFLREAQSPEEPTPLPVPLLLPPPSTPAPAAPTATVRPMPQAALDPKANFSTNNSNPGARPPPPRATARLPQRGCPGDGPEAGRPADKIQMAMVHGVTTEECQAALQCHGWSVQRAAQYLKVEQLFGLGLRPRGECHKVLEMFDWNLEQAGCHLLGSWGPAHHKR
# SR [30] = assay: Antiproliferative activity against human SR cells assessed as inhibition of cell growth incubated for 72 hrs by CCK8 assay; type: functional, cell-based
# HEK-293T = assay: Antiproliferative activity against human 293T cells overexpressing ALK G1202R mutant assessed as cell growth inhibition after 72 hrs; type: functional, cell-based
# Calu-1 [31] = assay: Inhibition of cell invasion in human Calu-1-GFP cells at 100 nM after 24 hrs by transwell invasion assay; type: functional, cell-based
# [32] = target: NPM/ALK (Nucleophosmin/ALK tyrosine kinase receptor) (Homo sapiens) (UniProt Q9UM73+P06748); assay: Induction of NPM-ALK degradation in human SR cells at 0.1 to 50 nM by Western blot analysis; type: cell-based; conditions: dose 0.1-50 nM
# [33] = target: T1, ALK tyrosine kinase receptor; assay: Induction of ALK degradation in human SR cells at 10 uM after 16 hrs by Western blot analysis; type: cell-based
# Target sequence in this assay (Q9UM73 19-1620 limits assumed): as the sequence (Q9UM73 19-1620 limits assumed) above
# [34] = target: T1, ALK tyrosine kinase receptor; assay: Induction of ALK degradation in human SR cells at 100 nM pretreated with proteosome inhibitor MG132 for 4 hrs followed by compound addition and measured after 16 hrs by Western blot analysis; type: cell-based
# Target sequence in this assay (Q9UM73 19-1620 limits assumed): as above
# Sequence of Protein-tyrosine kinase 2-beta (Homo sapiens) (Q14289 whole entry, looked up, the tested form may be a part): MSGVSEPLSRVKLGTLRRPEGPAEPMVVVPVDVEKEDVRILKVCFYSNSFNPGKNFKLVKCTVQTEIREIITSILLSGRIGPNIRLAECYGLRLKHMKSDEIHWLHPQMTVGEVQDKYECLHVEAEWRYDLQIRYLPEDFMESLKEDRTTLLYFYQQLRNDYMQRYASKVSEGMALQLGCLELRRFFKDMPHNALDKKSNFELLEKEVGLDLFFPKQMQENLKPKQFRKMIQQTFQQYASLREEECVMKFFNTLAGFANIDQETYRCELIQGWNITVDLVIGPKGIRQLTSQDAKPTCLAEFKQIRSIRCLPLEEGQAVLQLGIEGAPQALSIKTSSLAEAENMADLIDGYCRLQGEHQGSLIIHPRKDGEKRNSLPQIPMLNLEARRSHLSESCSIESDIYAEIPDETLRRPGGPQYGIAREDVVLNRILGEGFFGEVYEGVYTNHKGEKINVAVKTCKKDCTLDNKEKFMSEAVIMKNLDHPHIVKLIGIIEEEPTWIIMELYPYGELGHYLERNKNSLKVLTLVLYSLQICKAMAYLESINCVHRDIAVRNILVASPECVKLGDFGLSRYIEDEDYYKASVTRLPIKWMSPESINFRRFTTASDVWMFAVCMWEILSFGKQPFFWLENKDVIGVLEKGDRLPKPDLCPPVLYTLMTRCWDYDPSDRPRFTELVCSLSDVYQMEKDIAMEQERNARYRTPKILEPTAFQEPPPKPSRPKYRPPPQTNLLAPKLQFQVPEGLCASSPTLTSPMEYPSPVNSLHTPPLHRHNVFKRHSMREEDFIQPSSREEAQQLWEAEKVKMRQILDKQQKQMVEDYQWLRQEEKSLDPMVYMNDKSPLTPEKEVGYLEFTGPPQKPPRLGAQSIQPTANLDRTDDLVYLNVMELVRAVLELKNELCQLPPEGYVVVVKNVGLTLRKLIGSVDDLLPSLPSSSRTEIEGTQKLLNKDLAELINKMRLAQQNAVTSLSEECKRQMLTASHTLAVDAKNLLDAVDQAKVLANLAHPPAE
structure (smiles),measurement,setting,value
COc1cc(N2CCC(N3CCN(C(=O)CNc4cccc5c4C(=O)N(C4CCC(=O)NC4=O)C5=O)CC3)CC2)ccc1Nc1ncc(Cl)c(Nc2ccccc2P(C)(C)=O)n1 (stereo not given),Activity,[1],inactive
same,Activity,Calu-1 [2],Active
same,bioavailability,[3],18.4%
same,Activity,Calu-1 [4],Active
same,Activity,[5],Active
same,Activity,[6],Active
same,Activity,MDA-MB-231 [7],Active
same,Activity,[8],1.4%
same,Activity,A549 [9],Active
same,Activity,MDA-MB-231 [10],Active
same,Activity,MDA-MB-231 [11],inactive
same,Ratio,[12],0.18
same,Activity,[13],3.5%
same,Activity,A549 [14],Active
same,Activity,[15],0%
same,half-life,[16],279 min
same,inhibition at 0.01 µM,MDA-MB-231 [17],48%
same,IC50,[18],6.6 nM
same,IC50,[19],2.5 nM
same,Activity,[20],2.5%
same,Activity,SR [21],Active
same,Activity,[22],3.8%
same,Activity,Calu-1 [23],Active
same,Activity,[24],8.3%
same,Activity,[25],6.5%
same,Activity,Calu-1 [26],inactive
same,Activity,[27],8.2%
same,microsomal CLint,[28],< 9.6 µL/min/mg
same,Activity,[29],2%
same,IC50,SR [30],2 nM
same,IC50,HEK-293T,21 nM
same,inhibition,Calu-1 [31],Active
same,Activity,[32],Active
same,Activity,[33],Active
same,Activity,[34],inactive

# Reference: ChEMBL document CHEMBL5034001 (J Med Chem, 2021)
